Experimental data from patent US20130035229A1 (priority 2010, published 2013).
Read-outs that look alike come from different tables or passages of the source.

Key:
Pyricularia oryzae = format: cell-based; settings: single compound, 7 days after inoculation
Botrytis cinerea = assay: Microtest: activity against the grey mold pathogen Botrytis cinerea (micro titer plate, absorption 405 nm, 7 days); format: cell-based; settings: single compound, 7 days after inoculation

Compound | Observed efficacy (Pyricularia oryzae; 4 ppm) | Observed efficacy (Botrytis cinerea; 1 ppm) | Observed efficacy (Botrytis cinerea; 4 ppm) | also measured
Fc1cccc([C@@]2(Cn3ncnc3S)O[C@@H]2c2ccccc2Cl)c1 (relative stereo) [II-1, 2-[rel-(2S;3R)-3-(2-chlorophenyl)-2-(3-fluorophenyl)-oxiranylmethyl]-2H-[1,2,4]triazole-3-thiol] |  |  |  | Observed efficacy (Pyricularia oryzae; 63 ppm): 27%; Observed efficacy (Botrytis cinerea; 16 ppm): 8%; Observed efficacy (Botrytis cinerea; 63 ppm): 24%
Cn1cc(C(=O)Nc2ccccc2-c2cc(F)c(F)c(F)c2)c(C(F)F)n1 [Fluxapyroxad, reference compound] |  |  |  | Observed efficacy (Botrytis cinerea; 0.063 ppm): 29%
Fc1ccc(F)c2c(NCCc3ccc(Oc4cc(C(F)(F)F)ccn4)cc3)ncnc12 [I-5, (5,8-Difluoro-quinazolin-4-yl)-{2-[4-(4-trifluoromethyl-pyridin-2-yloxy)-phenyl]-ethyl}-amine] | 58% | 14% |  | 
COc1cc(CCNc2ncnc3c(F)ccc(F)c23)ccc1Oc1ncc(C(F)(F)F)cc1Cl [I-17, (5,8-Difluoro-quinazolin-4-yl)-{2-[4-(3-chloro-5-trifluoromethyl-pyridin-2-yloxy)-3-methoxy-phenyl]-ethyl}-amine] | 56% |  | 5% | 
COc1cc(CCNc2ncnc3c(F)ccc(F)c23)ccc1Oc1cc(C(F)(F)F)ccn1 [I-18, (5,8-Difluoro-quinazolin-4-yl)-{2-[4-(4-trifluoromethyl-pyridin-2-yloxy)-3-methoxy-phenyl]-ethyl}-amine] | 57% |  | 4% | 
COc1cc(CCNc2ncnc3c(F)cc(F)c(F)c23)ccc1Oc1cc(C(F)(F)F)ccn1 [I-19, (5,6,8-Trifluoro-quinazolin-4-yl)-{2-[4-(4-trifluoromethyl-pyridin-2-yloxy)-3-methoxy-phenyl]-ethyl}-amine] |  | 12% |  | 
